Measurements reported in patent US20260015328A1, “ATM KINASE INHIBITORS” (Eberhard Karls Universität Tübingen, priority 2023, published 2026).
Like-named read-outs stand apart in the source and are kept apart here.

What was measured:
[1] = molecular target: isolated ATM kinase (Homo sapiens (Human), UniProt Q13315); assay: FRET-based ATM activity assay at Reaction Biology Corp. (IC50^I); assay type: biochemical; details: Table 13; read-out: IC50 [nM], IC50^I
[2] = molecular target: ATM (h) (Homo sapiens (Human), UniProt Q13315); assay: ATM assay at Eurofins KinaseProfiler with adjusted concentration range (IC50^II); assay type: biochemical; details: Table 13
Chain of ATM (h) (Q13315 whole entry): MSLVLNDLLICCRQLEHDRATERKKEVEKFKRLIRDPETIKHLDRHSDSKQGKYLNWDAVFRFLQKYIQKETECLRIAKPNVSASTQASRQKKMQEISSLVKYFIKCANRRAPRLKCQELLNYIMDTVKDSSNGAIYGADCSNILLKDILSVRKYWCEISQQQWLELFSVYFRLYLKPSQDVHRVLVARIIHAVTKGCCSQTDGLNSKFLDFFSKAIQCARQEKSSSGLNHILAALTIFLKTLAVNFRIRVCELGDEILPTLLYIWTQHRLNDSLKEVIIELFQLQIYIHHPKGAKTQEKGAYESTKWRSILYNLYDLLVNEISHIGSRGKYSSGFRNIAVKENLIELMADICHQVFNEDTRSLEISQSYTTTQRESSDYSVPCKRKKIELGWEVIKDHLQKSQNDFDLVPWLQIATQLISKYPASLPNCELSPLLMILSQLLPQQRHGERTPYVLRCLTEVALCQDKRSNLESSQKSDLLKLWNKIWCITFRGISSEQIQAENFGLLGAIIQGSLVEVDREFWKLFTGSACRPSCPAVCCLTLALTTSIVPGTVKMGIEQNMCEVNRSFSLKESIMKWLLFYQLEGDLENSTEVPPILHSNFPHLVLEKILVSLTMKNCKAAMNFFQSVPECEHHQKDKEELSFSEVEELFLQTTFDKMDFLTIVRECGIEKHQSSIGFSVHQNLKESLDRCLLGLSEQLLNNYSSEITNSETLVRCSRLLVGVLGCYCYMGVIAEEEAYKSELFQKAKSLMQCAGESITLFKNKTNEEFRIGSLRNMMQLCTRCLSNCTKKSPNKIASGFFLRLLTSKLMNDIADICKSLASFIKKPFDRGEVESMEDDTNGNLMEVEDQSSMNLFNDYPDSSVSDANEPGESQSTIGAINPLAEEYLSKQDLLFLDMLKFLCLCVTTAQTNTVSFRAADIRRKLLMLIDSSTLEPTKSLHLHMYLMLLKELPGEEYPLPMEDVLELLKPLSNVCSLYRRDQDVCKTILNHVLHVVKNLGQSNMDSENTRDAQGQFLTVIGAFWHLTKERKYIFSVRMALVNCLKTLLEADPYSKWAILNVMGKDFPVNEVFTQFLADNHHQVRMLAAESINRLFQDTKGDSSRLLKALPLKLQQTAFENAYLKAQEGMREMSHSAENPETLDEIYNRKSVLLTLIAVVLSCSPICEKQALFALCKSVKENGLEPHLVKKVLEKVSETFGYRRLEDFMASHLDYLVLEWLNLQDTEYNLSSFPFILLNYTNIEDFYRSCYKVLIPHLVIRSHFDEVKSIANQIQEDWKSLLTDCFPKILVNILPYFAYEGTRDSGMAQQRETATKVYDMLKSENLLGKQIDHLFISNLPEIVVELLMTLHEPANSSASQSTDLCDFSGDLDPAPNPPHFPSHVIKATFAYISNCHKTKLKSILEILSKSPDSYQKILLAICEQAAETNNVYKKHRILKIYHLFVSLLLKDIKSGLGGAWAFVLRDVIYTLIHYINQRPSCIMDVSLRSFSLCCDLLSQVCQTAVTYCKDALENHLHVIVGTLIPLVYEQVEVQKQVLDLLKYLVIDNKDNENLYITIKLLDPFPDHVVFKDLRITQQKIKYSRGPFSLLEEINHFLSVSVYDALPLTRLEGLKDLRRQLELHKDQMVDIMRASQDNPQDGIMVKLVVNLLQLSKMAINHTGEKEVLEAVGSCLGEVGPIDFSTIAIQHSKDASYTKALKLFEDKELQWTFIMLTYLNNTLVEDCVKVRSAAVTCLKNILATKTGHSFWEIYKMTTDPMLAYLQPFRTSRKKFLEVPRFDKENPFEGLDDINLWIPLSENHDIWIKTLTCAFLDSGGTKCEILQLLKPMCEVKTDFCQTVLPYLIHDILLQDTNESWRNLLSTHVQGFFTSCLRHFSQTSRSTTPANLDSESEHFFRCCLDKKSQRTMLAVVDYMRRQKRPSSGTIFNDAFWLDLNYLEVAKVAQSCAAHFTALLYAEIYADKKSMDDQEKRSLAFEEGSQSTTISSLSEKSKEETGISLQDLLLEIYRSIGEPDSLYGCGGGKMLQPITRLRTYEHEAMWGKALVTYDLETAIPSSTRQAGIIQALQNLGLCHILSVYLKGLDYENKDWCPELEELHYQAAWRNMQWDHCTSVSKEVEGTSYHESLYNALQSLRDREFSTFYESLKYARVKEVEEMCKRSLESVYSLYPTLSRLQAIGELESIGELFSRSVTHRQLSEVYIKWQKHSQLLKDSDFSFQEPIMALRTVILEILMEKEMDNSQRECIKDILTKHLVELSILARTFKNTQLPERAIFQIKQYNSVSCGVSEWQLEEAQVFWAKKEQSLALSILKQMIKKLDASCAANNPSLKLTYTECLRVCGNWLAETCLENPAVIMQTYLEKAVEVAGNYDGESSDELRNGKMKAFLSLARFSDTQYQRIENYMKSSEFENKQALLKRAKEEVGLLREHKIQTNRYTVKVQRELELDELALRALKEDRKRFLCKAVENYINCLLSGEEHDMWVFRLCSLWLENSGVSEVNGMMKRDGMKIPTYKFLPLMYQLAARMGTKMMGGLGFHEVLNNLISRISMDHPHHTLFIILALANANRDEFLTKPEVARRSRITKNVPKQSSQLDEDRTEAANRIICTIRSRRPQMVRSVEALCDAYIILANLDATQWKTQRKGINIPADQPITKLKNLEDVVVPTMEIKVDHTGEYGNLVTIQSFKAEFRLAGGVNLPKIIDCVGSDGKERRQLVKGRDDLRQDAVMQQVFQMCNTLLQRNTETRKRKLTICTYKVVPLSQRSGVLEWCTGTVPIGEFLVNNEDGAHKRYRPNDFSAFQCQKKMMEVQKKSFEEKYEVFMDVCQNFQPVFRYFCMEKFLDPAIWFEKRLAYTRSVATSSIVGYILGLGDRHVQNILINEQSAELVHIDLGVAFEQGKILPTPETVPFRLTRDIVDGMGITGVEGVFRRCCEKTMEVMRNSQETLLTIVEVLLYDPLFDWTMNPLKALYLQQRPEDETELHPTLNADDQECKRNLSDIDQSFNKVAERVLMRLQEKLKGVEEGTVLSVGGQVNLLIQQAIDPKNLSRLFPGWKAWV

Chain of isolated ATM kinase (Q13315 whole entry): as above

IC50 [1] [nM]	IC50 ([2]; read-out: IC50 [nM], IC50^II) [nM]	SMILES	further results
	2	CN(C)CCc1nc2cc(-c3ccc4ncn(-c5ccc6c(c5)N(S(C)(=O)=O)CC6)c4c3)ccc2[nH]1 [TD-607, N,N-dimethyl-2-(3′-(1-(methylsulfonyl)indolin-6-yl)-1H,3′H-[5,5′-bibenzo[d]imidazol]-2-yl)ethan-1-amine]	
	237	CN(C)CCCn1cc(-c2ccc3ncn(-c4ccc5c(c4)N(S(C)(=O)=O)CC5)c3n2)cn1 [TD-623, N,N-dimethyl-3-(4-(3-(1-(methylsulfonyl)indolin-6-yl)-3H-imidazo[4,5-b]pyridin-5-yl)-1H-pyrazol-1-yl)propan-1-amine]	
	113	COc1cc2ncn(-c3ccc4c(c3)N(S(C)(=O)=O)CC4)c2cc1-c1ccc(NC(=O)NCCN(C)C)cc1 [TD-634, 1-(2-(dimethylamino)ethyl)-3-(4-(5-methoxy-1-(1-(methylsulfonyl)indolin-6-yl)-1H-benzo[d]imidazol-6-yl)phenyl)urea]	
	106	CS(=O)(=O)N1CCc2ccc(-n3cnc4ccc(-c5ccc(CO)cc5)cc43)cc21 [TD-587, (4-(1-(1-(methylsulfonyl)indolin-6-yl)-1H-benzo[d]imidazol-6-yl)phenyl)methanol]	

More lines, now with the values behind:

SMILES	IC50 [1] [nM]	IC50 ([2]; read-out: IC50 [nM], IC50^II) [nM]	further results
CN(C)CCNC(=O)Nc1ccc(-c2ccc3ncn(-c4ccc5c(c4)CCCC5)c3c2)cc1 [TD-547, 1-(2-(dimethylamino)ethyl)-3-(4-(1-(5,6,7,8-tetrahydronaphthalen-2-yl)-1H-benzo[d]imidazol-6-yl)phenyl)urea]	16		
COc1cc(-n2cnc3ccc(-c4ccc(NC(=O)NCCN(C)C)cc4)cc32)cc(OC)c1OC [TD-309, 1-(2-(dimethylamino)ethyl)-3-(4-(1-(3,4,5-trimethoxyphenyl)-1H-benzo[d]imidazol-6-yl)phenyl)urea]	60		
COCC(=O)Nc1cccc(-n2cnc3ccc(-c4ccc(NC(=O)NCCN(C)C)cc4)cc32)c1 [TD-344, N-(3-(6-(4-(3-(2-(dimethylamino)ethyl)ureido)phenyl)-1H-benzo[d]imidazol-1-yl)phenyl)-2-methoxyacetamide]	7		
CN1CCN2C(=O)N(c3ccc(-c4ccc5ncn(-c6cccc(NS(C)(=O)=O)c6)c5c4)cc3)CC2C1 (centres unmarked) [TD-448, N-(3-(6-(4-(7-methyl-3-oxohexahydroimidazo[1,5-a]pyrazin-2(3H)-yl)phenyl)-1H-benzo[d]imidazol-1-yl)phenyl)methanesulfonamide]	343		
COCC(=O)Nc1ccc(-n2cnc3ccc(-c4ccc(NC(=O)NCCN(C)C)cc4)cc32)cc1 [TD-339, N-(4-(6-(4-(3-(2-(dimethylamino)ethyl)ureido)phenyl)-1H-benzo[d]imidazol-1-yl)phenyl)-2-methoxyacetamide]	10		
COc1cc2ncn(-c3ccc4c(c3)N(S(C)(=O)=O)CC4)c2cc1-c1ccc(OCCCN(C)C)nc1 [TD-630, 3-((5-(5-methoxy-1-(1-(methylsulfonyl)indolin-6-yl)-1H-benzo[d]imidazol-6-yl)pyridin-2-yl)oxy)-N,N-dimethylpropan-1-amine]			IC50 ([2]; assay variant (I or II) not given, read-out: IC50): 386 nM
CN(C)CCSc1ccc(-c2ccc3ncn(-c4cccc(NS(C)(=O)=O)c4)c3c2)cc1 [TD-472, N-(3-(6-(4-((2-(dimethylamino)ethyl)thio)phenyl)-1H-benzo[d]imidazol-1-yl)phenyl)methanesulfonamide]	23		
